Test results reported in BindingDB's records for doi:10.1016/j.bmcl.2014.06.082 (Friedrich Alexander University, 2014).

Target: T1, G protein-coupled receptor (Human cytomegalovirus, UniProt Q9IP65)
T1 sequence (Q9IP65 whole entry): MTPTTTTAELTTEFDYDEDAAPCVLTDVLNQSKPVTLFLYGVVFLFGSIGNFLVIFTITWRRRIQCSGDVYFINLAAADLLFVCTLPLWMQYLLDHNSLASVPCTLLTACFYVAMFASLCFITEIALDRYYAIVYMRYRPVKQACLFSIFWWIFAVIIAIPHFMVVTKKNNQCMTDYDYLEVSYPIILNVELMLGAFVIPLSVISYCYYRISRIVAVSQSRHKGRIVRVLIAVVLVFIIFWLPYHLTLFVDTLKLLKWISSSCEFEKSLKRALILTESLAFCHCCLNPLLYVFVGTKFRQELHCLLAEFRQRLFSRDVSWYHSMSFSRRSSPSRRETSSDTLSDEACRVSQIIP
Experiment: Allosteric modulatory activity at FLAG-tagged human cytomegalovirus US28 receptor delta300 mutant expressed in HEK293T cells by PathDetectElk1 assay

Compound	EC50 [µM]
CCCCCCCCCC(=O)N(CCN(C)C)CC1(C)Cc2ccccc2C(=O)N1 (configuration not stated)	< 10
N#CC(CCCN1CCC(O)(c2ccc(Cl)cc2)CC1)(c1ccccc1)c1ccccc1 [5-[4-(4-Chloro-phenyl)-4-hydroxy-piperidin-1-yl]-2,2-diphenyl-pentanenitrile]	< 10
